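Assay format: 96-well plates, 48-hour exposure. GI50 = concentration required for 50% inhibition of growth. TGI marks complete inhibition of growth.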
What was measured:
Test in all cases: inhibition of tumour cell growth, NCI panel, 48 h
[1] = tested on: 786-0 renal
[2] = tested on: A498 renal
[3] = tested on: CAKI-1 renal
[4] = tested on: HCT-116 colon
[5] = tested on: HCT-15 colon
[6] = tested on: LOX IMVI melanoma
[7] = tested on: OVCAR-8 ovarian
[8] = tested on: RPMI-8226 leukemia
[9] = tested on: SK-MEL-28 melanoma
[10] = tested on: SNB-75 CNS

SMILES	GI50 [1] [µM]	TGI [1] [µM]	GI50 [2] [µM]	TGI [2] [µM]	GI50 [3] [µM]	TGI [3] [µM]	GI50 [4] [µM]	TGI [4] [µM]	GI50 [5] [µM]	TGI [5] [µM]	GI50 [6] [µM]	TGI [6] [µM]	GI50 [7] [µM]	TGI [7] [µM]	GI50 [8] [µM]	TGI [8] [µM]	GI50 [9] [µM]	TGI [9] [µM]	GI50 [10] [µM]	TGI [10] [µM]
COc1ccc2c(c1)[n+](=O)c(/C=C/C(=O)c1cc(OC)c(OC)c(OC)c1)c(C)n2[O-]	13.7	50.3	20.5	54.2	5.31	> 100	3.23	14.2	3.79	23.2	3.95	28.6	5.3	> 100	3.05	15.6	12.3	50.9	11.9	43.1
Cc1cc(C)c(-c2c(O)c(Br)c(-c3c(C)cc(C)c(Br)c3C)c(O)c2Br)c(C)c1Br	3.74	14.3	4.67	20.5	1.66	5.99	2.13	5.53	2.51	10.8	1.74	3.39	3.08	10.4	2.08	11.9	2.66	12.8	1.88	10.3
C[C@]12CC[C@H](OC(=O)Nc3ccccc3)CC1=CC[C@@H]1C2CC[C@]2(C)/C(=N/OC(=O)Nc3ccccc3)CCC12 (some centres undefined)		> 100		> 100		4.96		> 100		3.31		> 100		> 100		> 100				> 100
COC(=O)C1=C(O)c2cc(OC)c(OC)c(OC)c2C(c2ccc3c(c2)OCO3)[C@@H]1C(=O)OC (some centres undefined)		> 100		19.2		> 100		> 100		> 100		> 100		> 100		> 100		> 100		> 100
COc1ccc(CN2c3ccccc3Sc3ccccc32)cc1O	0.838	21.5	2.71	19	0.472	17.7	0.386	13.1	0.369	11.8	0.71	18.8	0.508	20.3	0.483	35.5	14.4	32.2	0.18	13.3
CC(=O)/C(=N\N=C(N)N)c1ccccc1		> 100		> 100		> 100		> 100		> 100		> 100		> 100		> 100		> 100		> 100
CSCc1ncc(-c2ccc(C(F)(F)F)cc2)c(NC2CCCCCC2)n1	> 10	> 10	> 10	> 10	> 10	> 10	> 10	> 10	> 10	> 10	> 10	> 10	> 10	> 10	> 10	> 10	> 10	> 10	> 10	> 10
Cc1cc(C)nc(NC(=O)COc2ccc(Cl)cc2)c1		> 100		> 100		> 100		> 100		> 100		> 100		> 100		> 100		> 100		> 100
CCOC(=O)c1sc(NC(=O)COc2ccc(/C=C3\CCc4cc(OC)ccc4C3=O)cc2)nc1C	11.5	24.7	13.2	30.1	11.1	31.6	12.9	25.6	7.96	21.1	1.31	18.8	9.5	34.7	0.684	6.64	14.6	27.7	6.73	24.3
Cn1cnnc1Sc1c([N+](=O)[O-])nc(-c2ccc([N+](=O)[O-])cc2)n1C		31.8		> 100		> 100		28.4				26.8		33		37.8		29.6		87.5
CN(C)C(=S)/N=c1\ssc(=Nc2ccccc2)n1-c1ccccc1		37.1		> 100		75.6				> 100		87		68.7				> 100		36.5
COc1ccccc1/C=C(\NC(=O)c1ccccc1)c1nc2ccccc2[nH]1		> 100		> 100		> 100		> 100		> 100		> 100		> 100		51.7		> 100		> 100
O=C(O)CCN1C(=S)CSC1=S		> 100		> 100		> 100		> 100		> 100		> 100		> 100		> 100		> 100		> 100
COc1ccc(N=c2nc3sc4cc(Cl)ccc4n3c(N)c2C#N)cc1	2.43	5.47	2.64	7.05	8.05	78.3	6.5	> 100	5.59	> 31.1	2.06	5.07	5.05	> 100	25	> 72.6	2.92	22.9	3.4	> 100
N.N.N.N.O=S([O-])[O-].[Co+3].[N-]=[N+]=[N-]	> 100	> 100	> 100	> 100			> 100	> 100	> 100	> 100	> 100	> 100	> 100	> 100	> 100	> 100	> 100	> 100	70.4	> 100
CCOC(=O)C(Cc1cc(OC)c(CC(C(=O)OCC)C(=O)OCC)cc1OC)C(=O)OCC		> 100		> 100		> 100		> 100		> 100		> 100		> 100		> 100		> 100		57.6

— PubChem BioAssay (NCI)
